These results are taken from patent US20250381307A1, “RETRO-AAV AND USE IN TREATING NEURODEGENERATIVE DISEASES” (priority 2023, published 2025).

Assay [1] deals with hM3Dq or rM3Ds. Nature of the assay: Locomotion test in macaques with nigral hM3Dq or rM3Ds AAV after CNO. It is filed as in vivo. On the procedure: To guide the virus injection in SNr, a guide grid of multiple holes spaced by 1 mm was installed on each subject vertically above the SN. By filling vitamin E in these holes, the accurate coordinates for injection could be obtained from the T1-weighted MRI images (3T Tim Trio scanner, Siemens). Virus injections were performed in nine sites covering the whole SNr, and a total volume of 27 μL virus was unilaterally injected in the right SNr at the speed of 300 nL/min.
The locomotion tests for monkeys were conducted in a custom-made observation cage (100 cm×100 cm×100 cm). The top and front of the cage were made of toughened glass in order to gain a clear view for behavioral recording. Monkeys were habituated to the observation cage by placing them inside for 30 minutes on three separate days.
For monkeys injected with AAV8R12-G88P3-HA-hM3Dq, CNO was intracranially infused into the dorsomedial caudate through the recording chamber. To infuse while the animal was awake, the monkey was trained to sit in a primate chair specially designed with its head fixed to the primate chair by a mask made of thermoplastic materials. Injections were conducted through a 33-Gauge needle connected to a 250 μL syringe via a polyethylene pipe (Hamilton, Neuros). […] The needle was held for 5 minutes for drug diffusion before retraction. For monkeys injected with AAV8R12-G88P7-rM3Ds-2A-EYFP, CNO was infused via intramuscular injection (10 mg/kg). […] Videos capturing the subjects' behavior were recorded for at least 90 minutes. Animal behaviors from 30-90 minutes after saline/CNO infusion were further analyzed and quantified.
For rotation analysis, only movements that occurred lower than 30 cm on the z-axis were counted. To determine the direction of the rotation, we first computed the center for the rotation data in the x-y plane as (x0, y0) by averaging all data points, and then we computed the angle relative to (x0, y0) for each time point by the following formula:
where θi represents the rotating angle at time i, and (xi, yi) represents the x-y coordinate at time i. We then calculated the change of rotating angle as Δθi=θi−θi-1. For right nigral injections, when Δθ<0, the direction of the rotation was anticlockwise and was labeled as a contraversive rotation. When Δθ>0, the direction of the rotation was clockwise and was labeled as an ipsiversive rotation. The raw data were analyzed and plotted through a custom R package. Code is available on Github (github.com/chenyef/PD_ana/blob/main/Behavior_ana.txt).

The target of assay [2] is hM3Dq (Homo sapiens, UniProt P20309, A239G/Y149C). Nature of the assay: In vivo electrophysiological recording in caudate, hM3Dq macaques, CNO infusion into dorsomedial caudate. Also noted: host or cells: AAV8R12-transduced neurons (striatal D1-MSNs, some SNr neurons) of mice and macaques. On the procedure: Electrophysiological recording was performed through a recording chamber while the monkey was anesthetized. Neural responses were recorded by a 16-channel linear probe (Plexon Inc, Uprobe) driven by a mechanical microdrive (Alpha Omega, FlexMT). Signals were passed through a head stage (Plexon Inc, HST/16V-G20 LN) and then split and filtered between 300 Hz and 5 kHz to identify spiking activity with an amplifier system (Plexon Inc, OmniPlex). Detected spikes were then sorted by commercially available software (Plexon Inc, Offline Sorter) for further analysis. To quantify the effect of CNO/DCZ injection, neural activity was recorded for 60 minutes following CNO/DCZ injection. The response time-course for each channel was obtained by counting the spikes within every 10-minute window and then normalizing to the maximal.
To determine the effect of CNO/DCZ injection on the direction of signal change, we performed Pearson correlation between neural responses and time using the ‘corr’ function in Matlab, which generates the correlation coefficient ‘r’ and significant level ‘p’. A neuron was considered to have “Increased” activity when r>0 and p<0.05; and considered to have “Decreased” activity when r<0 and p<0.05. Otherwise, neurons were considered to be “Unchanged” in their neural activities. The responses of all increased neurons were then averaged after being normalized by the maximal response (Crowe et al., 2014; Dai and Wang, 2018; Hirokawa et al., 2019) following CNO/DCZ injection, and then plotted as a function of time to generate the normalized population response.

hM3Dq, sequence (P20309 whole entry Y149C/A239G, the tested form may be a part): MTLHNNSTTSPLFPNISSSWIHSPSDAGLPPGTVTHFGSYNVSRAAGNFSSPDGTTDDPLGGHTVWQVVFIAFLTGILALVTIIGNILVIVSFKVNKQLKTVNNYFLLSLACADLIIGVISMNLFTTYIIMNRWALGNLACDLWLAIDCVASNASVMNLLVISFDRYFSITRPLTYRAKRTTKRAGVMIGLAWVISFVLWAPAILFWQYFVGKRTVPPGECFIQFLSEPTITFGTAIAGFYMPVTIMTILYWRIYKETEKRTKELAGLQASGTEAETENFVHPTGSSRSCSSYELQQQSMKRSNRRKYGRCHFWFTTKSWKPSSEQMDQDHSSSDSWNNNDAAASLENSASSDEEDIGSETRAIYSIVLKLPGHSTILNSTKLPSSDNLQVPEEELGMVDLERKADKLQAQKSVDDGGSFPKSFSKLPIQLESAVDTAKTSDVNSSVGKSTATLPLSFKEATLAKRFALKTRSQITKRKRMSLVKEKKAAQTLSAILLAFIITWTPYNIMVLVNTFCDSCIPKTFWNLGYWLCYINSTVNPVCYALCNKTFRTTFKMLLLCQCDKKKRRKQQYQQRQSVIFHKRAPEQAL

In the case of `C[N+]1([O-])CCN(C2=Nc3cc(Cl)ccc3Nc3ccccc32)CC1` [CNO, clozapine N-oxide], the “muscle tone by electromyogram recordings” value in assay [1] (following CNO infusions) was “an increase in the muscle tone of the contralateral biceps brachii”. For the same compound, the “contraversive rotations (FIG. 10C)” value in assay [1] (intracranial (hM3Dq) or systemic (rM3Ds) CNO, n=4 monkeys, mean±SEM, saline 1.004±0.2667) amounted to 6.649±1.662. In addition, the “velocity of ipsiversive rotations (FIG. 10H)” value in assay [1] (n=4 monkeys, saline 37.43±3.264, not significant) was 41.37±6.566. Further, the “speed during contraversive rotations (FIG. 10G)” value in assay [1] (n=4 monkeys, saline 38.42±5.465) is reported as 46.98±6.669. The “time in the top portion of the observing cage (FIG. 10D)” value in assay [1] (n=4 monkeys, saline 68.42±10.7) is recorded as 33.74±2.641. The “total distance (FIG. 10F)” value in assay [1] (n=4 monkeys, saline 71.53±15.4, not significant) came out at 97.37±19.41. Also, the “immobile time (FIG. 10E)” value in assay [1] (n=4 monkeys, saline 107.1±2.322, not significant) is on record as 89.13±8.379. Besides, the “rotations 2.5 years after the nigral injections” value in assay [1] (systemic CNO, unilateral AAV8R12-G88P7-rM3Ds-2A-EYFP) was “increased contraversive rotations”. Besides, the “caudate cells activated (FIG. 12L)” value in assay [2] (34 total cells, saline 18.8%) is reported as 67.6%. In addition, in assay [2] (34 total cells, saline 40.6%), the “caudate cells inactivated (FIG. 12L)” value amounted to 2.9% and the “caudate cells unchanged (FIG. 12L)” value turned out to be 29.4%. Further, in assay [2] (monkey CM045, 34 cells), the “caudate cells activated (FIG. 12C)” value was 70.6%, the “caudate cells inactivated (FIG. 12C)” value is recorded as 8.8% and the “caudate cells unchanged (FIG. 12C)” value came to 20.6%.
